Results: patent US20230189808A1, “SELECTIVE HERBICIDES BASED ON SUBSTITUTED ISOXAZOLIN CARBOXAMIDES AND FURILAZOLE” (Bayer Aktiengesellschaft, priority 2020, published 2023)

Legend:
ZEAMA Sileno [1] = experiment: Safener seed treatment with pre-emergence herbicide application, crop damage test in greenhouse; assay type: in vivo, maize; design: key to Reduction [Difference]: difference in % crop damage (visual score vs untreated control); settings: for Reduction [%] / Reduction [Difference]: furilazole 0.25 g a.i./kg seed; for HER effect + SAF [%] / HER effect [%]: pre-emergence; for HER effect + SAF [%]: furilazole seed treatment 0.25 g a.i./kg seed; for HER effect [%]: % crop damage
Experimental: Seed Treatment; Pre-Emergence • A) Method Description
For the safener seed treatment, sufficient seeds of the respective crops (spring wheat, TRZAS; spring barley, HORVS; maize, ZEAMA) were weighed into screw top glass bottles approximately twice the volume of the seeds.
The specified safeners, formulated as wettable powder (WP) were weighed out so that the specified rates (g a·i·/kg seed) would be obtained, dissolved in water (1 ml water per 10 g of seeds), and added to the seeds to produce a slurry.
The bottles were capped and then placed in an overhead shaker (set at medium speed for ca. 60 minutes) so that the seeds were evenly coated with the slurry. The bottles were uncapped and the seeds were either placed on paper and dried for an interval of 3-4 hours prior to sowing, or directly sown. Seeds were placed in sandy loam soil in pots of a diameter of 7-8 cm, and covered with soil.
Pre-emergence application of the specified herbicides was done subsequently, on two sets of plants:
a) seed treatment with safener, as described above
The herbicides were formulated as WP and was sprayed onto the soil surface as an aqueous suspension at an equivalent water application rate of 300 1/ha.
After application, the test plants were kept in the greenhouse under good growth conditions. At intervals up to 4 weeks after application (=28 days after treatment; DAT), % crop damage observed on the treated plants was scored visually in comparison to control plants that had not received any safener or herbicide treatment.
Values in the table below are mean values of at least 2 replicates.
(§1) Plant Species, Variety: ZEAMA Sileno, Safener (SAF): Furilazole

ZEAMA Sileno [2] = experiment: Tank-mix post-emergence crop damage and safener test in greenhouse; assay type: in vivo, maize; settings: final assessment
Experimental: Tank-Mix; Post-Emergence • A) Method Description
Seeds of crops (spring wheat, TRZAS; spring barley, HORVS; maize, ZEAMA) were placed in sandy loam soil in peat pots, covered with soil and cultivated in a greenhouse under good growth conditions. Two to three weeks after sowing, the test plants were treated at the 1 to 3-leaf stage. The herbicide/safener active compound combinations according to the invention, formulated as wettable powders or emulsion concentrates, and, in parallel tests, the correspondingly formulated individual active compounds were sprayed onto the green parts of the plants in various dosages using an amount of water of 300 1/ha (converted).
The pots were returned under good growing conditions in a glasshouse and a visual assessment of herbicidal effects was made at intervals from 1 to 3 weeks after herbicide application (DAT=days after treatment). Assessment was on a percentage basis in comparison with untreated control plants (0%=no injury, 100%=complete kill).
as §1

[3] = herbicide alone 80 g a.i./ha, 14 DAT
[4] = herbicide alone 80 g a.i./ha, 26 DAT
[5] = herbicide alone 40 g a.i./ha, 14 DAT
[6] = herbicide alone 40 g a.i./ha, 26 DAT

Row | SMILES | Reduction [%] (ZEAMA Sileno [1]; herbicide 80 g a.i./ha, 14 DAT) | Reduction [Difference] (ZEAMA Sileno [1]; herbicide 80 g a.i./ha, 14 DAT) | Reduction [%] (ZEAMA Sileno [1]; herbicide 80 g a.i./ha, 26 DAT) | Reduction [Difference] (ZEAMA Sileno [1]; herbicide 80 g a.i./ha, 26 DAT) | HER effect + SAF [%] (ZEAMA Sileno [1]; herbicide 80 g a.i./ha, 14 DAT) | HER effect + SAF [%] (ZEAMA Sileno [1]; herbicide 80 g a.i./ha, 26 DAT) | HER effect [%] (ZEAMA Sileno [1]; [3]) | HER effect [%] (ZEAMA Sileno [1]; [4]) | Reduction [%] (ZEAMA Sileno [1]; herbicide 40 g a.i./ha, 14 DAT) | Reduction [Difference] (ZEAMA Sileno [1]; herbicide 40 g a.i./ha, 14 DAT) | Reduction [%] (ZEAMA Sileno [1]; herbicide 40 g a.i./ha, 26 DAT) | Reduction [Difference] (ZEAMA Sileno [1]; herbicide 40 g a.i./ha, 26 DAT) | HER effect + SAF [%] (ZEAMA Sileno [1]; herbicide 40 g a.i./ha, 14 DAT) | HER effect + SAF [%] (ZEAMA Sileno [1]; herbicide 40 g a.i./ha, 26 DAT) | HER effect [%] (ZEAMA Sileno [1]; [5]) | HER effect [%] (ZEAMA Sileno [1]; [6]) | Reduction [%] (ZEAMA Sileno [2]; Reduction [Difference]*100/herbicide damage without safener, herbicide 32 g a.i./ha, furilazole 100 g a.i./ha) | Reduction [Difference] (ZEAMA Sileno [2]; herbicide damage without safener minus with safener, herbicide 32 g a.i./ha, furilazole 100 g a.i./ha) | HER effect + SAF [%] (ZEAMA Sileno [2]; post-emergence tank-mix, herbicide 32 g a.i./ha + furilazole 100 g a.i./ha) | HER effect [%] (ZEAMA Sileno [2]; post-emergence, herbicide alone 32 g a.i./ha, visual crop injury (0%=no injury, 100%=complete kill))
1 | COCCOC(=O)C1C=CC(NC(=O)C2(C)CC(c3cc(Cl)cc(C#N)c3)=NO2)C1 (centres unmarked) [Example 1.5] | 33% | 20 | 67% | 30 | 40% | 15% | 60% | 45% | – | – | – | – | – | – | – | – | – | – | – | –
2 | C=CC1(C(=O)NC2COC(C(=O)OC)C2)CC(c2cc(F)cc(F)c2)=NO1 (mixture of isomers) [Example 1.68] | 38% | 37 | 40% | 40 | 60% | 60% | 97% | 100% | 73% | 68 | 79% | 75 | 25% | 20% | 93% | 95% | – | – | – | –
3 | C=CC1(C(=O)NC2COC(C(=O)OC)C2)CC(c2cc(F)cc(F)c2)=NO1 (centres unmarked) [Example 1.69] | – | – | – | – | – | – | – | – | 37% | 35 | – | – | 60% | – | 95% | – | – | – | – | –
4 | C=CC1(C(=O)NC2C=CC(C(=O)OC)C2)CC(c2cc(F)cc(F)c2)=NO1 (centres unmarked) [Example 1.26] | 79% | 55 | 86% | 60 | 15% | 10% | 70% | 70% | – | – | 80% | 40 | – | 10% | – | 50% | 61% | 57 | 37% | 94%
5 | COC(=O)[C@H]1OCC[C@@H]1NC(=O)[C@@]1(C)CC(c2cc(F)cc(F)c2)=NO1 [Example 1.92] | – | – | – | – | – | – | – | – | 100% | 75 | 86% | 60 | 0% | 10% | 75% | 70% | – | – | – | –
6 | CN(C)C(=O)SCCOC(=O)C1C=CC(NC(=O)C2(C)CC(c3cc(F)cc(F)c3)=NO2)C1 (centres unmarked) [Example 1.29] | 50% | 30 | – | – | 30% | – | 60% | – | – | – | – | – | – | – | – | – | – | – | – | –
